Measured values reported in US10526316B2, “Quinoxaline and pyridopyrazine derivatives as PI3Kβ inhibitors” (Janssen Pharmaceutica NV, priority 2015, dated 2020).
Like-named read-outs stand apart in the source and are kept apart here.

Assays:
[1] = molecular target: T1, PI3Kβ (Homo sapiens, UniProt P42338); test: Enzyme binding assay (KINOMEscan, DiscoveRx); details: PIK3Cβ_h, read-out: Kd PIK3Cβ_h
T1 construct: purchased DiscoveRx Corporation, San Diego (contract service, KINOMEscan)
In short: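 Compounds are profiled for binding to the kinase using KINOMEscan. The affinity is then reported as an inhibitor Kd in nanomolar units.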

[2] = molecular target: T2, PI3Kδ (Homo sapiens, UniProt O00329); test: Enzyme binding assay (KINOMEscan, DiscoveRx); details: PIK3Cδ_h
T2 construct: purchased DiscoveRx Corporation, San Diego (contract service, KINOMEscan)
T2 sequence (O00329 1-1044): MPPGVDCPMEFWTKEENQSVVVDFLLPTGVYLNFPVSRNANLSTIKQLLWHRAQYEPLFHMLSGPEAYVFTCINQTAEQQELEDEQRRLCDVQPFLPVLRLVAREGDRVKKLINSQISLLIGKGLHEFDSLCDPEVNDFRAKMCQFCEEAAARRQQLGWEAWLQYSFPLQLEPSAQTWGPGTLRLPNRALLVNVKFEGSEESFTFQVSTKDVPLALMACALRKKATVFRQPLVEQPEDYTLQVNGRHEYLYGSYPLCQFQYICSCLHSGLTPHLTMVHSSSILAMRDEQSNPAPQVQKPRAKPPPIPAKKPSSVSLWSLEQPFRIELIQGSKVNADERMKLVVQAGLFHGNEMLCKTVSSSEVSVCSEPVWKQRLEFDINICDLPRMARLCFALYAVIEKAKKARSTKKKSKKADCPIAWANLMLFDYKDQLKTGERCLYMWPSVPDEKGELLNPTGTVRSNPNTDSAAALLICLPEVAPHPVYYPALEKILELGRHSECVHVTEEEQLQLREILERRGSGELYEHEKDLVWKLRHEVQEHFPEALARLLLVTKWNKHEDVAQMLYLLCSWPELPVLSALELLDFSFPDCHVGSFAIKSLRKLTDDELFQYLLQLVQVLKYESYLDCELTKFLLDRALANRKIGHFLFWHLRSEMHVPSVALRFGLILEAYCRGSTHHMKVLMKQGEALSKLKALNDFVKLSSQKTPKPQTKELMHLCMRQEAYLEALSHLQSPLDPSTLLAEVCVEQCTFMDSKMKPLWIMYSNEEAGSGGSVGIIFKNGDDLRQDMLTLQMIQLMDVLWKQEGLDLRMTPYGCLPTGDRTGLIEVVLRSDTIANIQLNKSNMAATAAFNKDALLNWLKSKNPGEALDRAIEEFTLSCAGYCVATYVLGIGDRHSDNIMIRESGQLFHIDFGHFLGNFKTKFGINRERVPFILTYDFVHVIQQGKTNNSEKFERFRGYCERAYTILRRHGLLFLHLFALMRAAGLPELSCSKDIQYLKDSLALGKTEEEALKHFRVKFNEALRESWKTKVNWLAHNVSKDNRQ
In short: (§1)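 Compounds were profiled by KINOMEscan to obtain kinase binding affinities.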

[3] = molecular target: T3, kinase enzymes (Homo sapiens, UniProt P42336); test: Enzyme binding assay (KINOMEscan, DiscoveRx), further kinases of Table A; details: PIK3Cα_h
T3 construct: purchased DiscoveRx Corporation, San Diego (contract service, KINOMEscan)
In short: as §1

[4] = molecular target: T4, kinase enzymes (Homo sapiens, UniProt P42345); test: as above; details: MTOR_h
T4 construct: purchased DiscoveRx Corporation, San Diego (contract service, KINOMEscan)
In short: as §1

[5] = molecular target: T5, kinase enzymes (Homo sapiens, UniProt P48736); test: as above; details: PIK3Cγ_h
T5 construct: purchased DiscoveRx Corporation, San Diego (contract service, KINOMEscan)
In short: as §1

[6] = test system: Akt phosphorylated at Ser473 in PC-3 cells; test: Cellular assay: phosphorylation of Akt at Ser473 in PC-3 cells (MSD ELISA); format: cell-based; details: PC-3 cells, 60 min compound incubation, MSD ELISA, read-out: IC50 pAkt_S473
In short: (§2)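 Electrochemiluminescent sandwich ELISA read-out: phospho-specific capture (Ser473 or Thr308), Sulfo-tag anti-total Akt detection, signal proportional to phospho-Akt. Cells treated 60 min at 37° C with compound, DMSO 0.3%. IC50 fitted from five concentrations.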

[7] = test system: Akt phosphorylated at Thr308 in PC-3 cells; test: Cellular assay: phosphorylation of Akt at Thr308 in PC-3 cells (MSD ELISA); format: cell-based; details: PC-3 cells, 60 min compound incubation, MSD ELISA, read-out: IC50 pAkt_Thr308
In short: as §2

T1 sequence (P42338 whole entry): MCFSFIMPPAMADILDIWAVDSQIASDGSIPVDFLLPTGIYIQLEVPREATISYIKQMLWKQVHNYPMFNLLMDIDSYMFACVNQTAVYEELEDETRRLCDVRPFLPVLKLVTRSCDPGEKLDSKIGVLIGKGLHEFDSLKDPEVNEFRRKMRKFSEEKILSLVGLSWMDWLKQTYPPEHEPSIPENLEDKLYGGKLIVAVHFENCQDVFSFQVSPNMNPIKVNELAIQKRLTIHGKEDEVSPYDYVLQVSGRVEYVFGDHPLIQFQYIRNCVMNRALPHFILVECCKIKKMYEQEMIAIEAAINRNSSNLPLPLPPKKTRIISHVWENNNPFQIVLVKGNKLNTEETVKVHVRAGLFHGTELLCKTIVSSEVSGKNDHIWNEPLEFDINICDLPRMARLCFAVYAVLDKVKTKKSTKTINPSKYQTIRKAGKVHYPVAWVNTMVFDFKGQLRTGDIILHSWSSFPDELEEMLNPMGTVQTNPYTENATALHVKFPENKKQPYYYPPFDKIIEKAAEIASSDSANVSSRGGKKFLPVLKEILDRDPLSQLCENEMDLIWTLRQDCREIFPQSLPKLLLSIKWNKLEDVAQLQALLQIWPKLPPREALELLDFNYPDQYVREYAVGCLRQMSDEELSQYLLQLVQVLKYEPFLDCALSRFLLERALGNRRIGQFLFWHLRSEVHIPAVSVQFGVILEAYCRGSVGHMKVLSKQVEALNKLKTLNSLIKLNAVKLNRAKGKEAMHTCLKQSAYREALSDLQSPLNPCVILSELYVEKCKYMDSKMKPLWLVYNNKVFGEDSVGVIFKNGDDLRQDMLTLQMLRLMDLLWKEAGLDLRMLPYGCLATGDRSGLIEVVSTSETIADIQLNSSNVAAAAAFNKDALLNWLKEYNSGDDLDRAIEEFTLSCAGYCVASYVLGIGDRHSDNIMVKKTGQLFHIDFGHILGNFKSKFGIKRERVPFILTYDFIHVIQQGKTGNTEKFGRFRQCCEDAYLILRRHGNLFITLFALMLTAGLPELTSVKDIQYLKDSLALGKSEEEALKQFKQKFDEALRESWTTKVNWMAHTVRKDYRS
T3 sequence (P42336 whole entry): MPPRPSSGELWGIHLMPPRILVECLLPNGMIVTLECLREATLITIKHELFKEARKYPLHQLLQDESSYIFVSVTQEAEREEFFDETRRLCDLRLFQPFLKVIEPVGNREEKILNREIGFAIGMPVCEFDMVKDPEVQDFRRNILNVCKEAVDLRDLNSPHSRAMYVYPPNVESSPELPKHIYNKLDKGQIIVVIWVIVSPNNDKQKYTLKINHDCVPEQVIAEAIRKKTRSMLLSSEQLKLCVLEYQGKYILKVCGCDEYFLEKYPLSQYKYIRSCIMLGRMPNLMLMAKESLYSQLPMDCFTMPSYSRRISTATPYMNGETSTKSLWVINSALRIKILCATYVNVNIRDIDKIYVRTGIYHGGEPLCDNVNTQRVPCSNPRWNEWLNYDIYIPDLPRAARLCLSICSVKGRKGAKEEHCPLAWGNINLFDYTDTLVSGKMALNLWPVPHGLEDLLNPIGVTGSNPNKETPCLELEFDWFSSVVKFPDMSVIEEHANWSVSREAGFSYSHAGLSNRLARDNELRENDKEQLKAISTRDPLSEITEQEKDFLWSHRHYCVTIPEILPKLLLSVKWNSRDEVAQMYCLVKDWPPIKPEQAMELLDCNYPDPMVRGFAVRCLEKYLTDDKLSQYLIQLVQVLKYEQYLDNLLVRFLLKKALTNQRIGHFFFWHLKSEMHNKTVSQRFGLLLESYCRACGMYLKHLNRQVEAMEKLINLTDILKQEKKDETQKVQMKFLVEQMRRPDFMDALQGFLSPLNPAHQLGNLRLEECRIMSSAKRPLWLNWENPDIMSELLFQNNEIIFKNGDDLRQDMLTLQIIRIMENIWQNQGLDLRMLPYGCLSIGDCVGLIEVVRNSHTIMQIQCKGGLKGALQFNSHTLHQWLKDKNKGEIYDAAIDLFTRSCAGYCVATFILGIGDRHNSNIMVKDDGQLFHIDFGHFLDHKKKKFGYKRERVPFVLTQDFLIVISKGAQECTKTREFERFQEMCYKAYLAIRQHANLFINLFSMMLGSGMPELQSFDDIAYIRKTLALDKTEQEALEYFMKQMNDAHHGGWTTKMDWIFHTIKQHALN
T5 sequence (P48736 whole entry): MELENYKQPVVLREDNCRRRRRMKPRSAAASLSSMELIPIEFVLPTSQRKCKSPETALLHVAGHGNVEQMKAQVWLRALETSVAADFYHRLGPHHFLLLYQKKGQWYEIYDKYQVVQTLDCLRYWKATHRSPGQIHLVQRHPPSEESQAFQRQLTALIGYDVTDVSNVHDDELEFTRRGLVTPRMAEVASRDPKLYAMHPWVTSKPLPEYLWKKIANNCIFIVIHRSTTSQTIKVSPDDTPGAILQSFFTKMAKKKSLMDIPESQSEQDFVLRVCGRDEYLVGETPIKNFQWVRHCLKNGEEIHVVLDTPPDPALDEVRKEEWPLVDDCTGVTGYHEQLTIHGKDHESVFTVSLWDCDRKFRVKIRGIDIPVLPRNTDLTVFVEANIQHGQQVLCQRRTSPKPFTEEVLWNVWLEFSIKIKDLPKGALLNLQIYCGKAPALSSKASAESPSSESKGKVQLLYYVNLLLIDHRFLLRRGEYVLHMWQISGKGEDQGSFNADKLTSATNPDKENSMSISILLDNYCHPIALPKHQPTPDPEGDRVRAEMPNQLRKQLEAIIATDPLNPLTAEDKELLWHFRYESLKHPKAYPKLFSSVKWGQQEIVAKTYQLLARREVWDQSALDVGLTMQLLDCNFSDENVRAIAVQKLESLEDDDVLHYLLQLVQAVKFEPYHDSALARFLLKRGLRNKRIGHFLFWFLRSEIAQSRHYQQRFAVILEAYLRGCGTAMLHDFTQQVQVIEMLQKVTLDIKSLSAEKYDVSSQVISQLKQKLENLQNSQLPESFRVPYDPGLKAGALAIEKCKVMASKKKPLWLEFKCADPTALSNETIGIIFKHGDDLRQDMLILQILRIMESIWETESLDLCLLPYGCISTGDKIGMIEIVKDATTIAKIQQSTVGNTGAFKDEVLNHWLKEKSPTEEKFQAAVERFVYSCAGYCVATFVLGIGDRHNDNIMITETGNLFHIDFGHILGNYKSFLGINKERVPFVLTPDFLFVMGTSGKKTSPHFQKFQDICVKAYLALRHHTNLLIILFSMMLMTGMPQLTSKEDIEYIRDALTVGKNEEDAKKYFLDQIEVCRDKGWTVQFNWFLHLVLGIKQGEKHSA

Structure (SMILES) | Kd [1] | Kd [2] | Kd [3] | Kd [4] | Kd [5] | IC50 ([6]; Homo sapiens, PC-3, 1 h) | IC50 ([7]; Homo sapiens, PC-3, 1 h) | melting point | IC50 [6] | IC50 [7]
CC(c1cc(C(=O)N2CCOCC2)cc2ncc(N3CCOCC3)nc12)N(CCO)c1cc(F)cc(F)c1 (stereo not shown) [Compound 129] | 3 nM | 1070 nM | 1780 nM | 9770 nM | 8910 nM | 112 nM | 105 nM | 80 °C |  | 
CN(C)C(=O)c1cc(C2CCCN2c2cc(F)cc(CO)c2)c2nc(N3CCOCC3)cnc2c1 (stereo not shown) [Compound 45] | 3 nM | 126 nM | 170 nM | 31600 nM | 2090 nM | 166 nM | 72 nM | 80 °C |  | 
CC(Oc1cccc(F)c1)c1cc(C(=O)N2CCC[C@H]2CO)cc2ncc(N3CCOCC3)nc12 (single isomer, unassigned) [Compound 87] | 1380 nM | 9550 nM | 22900 nM | > 30200 nM | > 30200 nM |  |  | 74 °C | > 513 nM | > 513 nM
CC(Nc1ccc(F)c(F)c1)c1cc(C(=O)N2CCN3CCC[C@@H]3C2)cc2ncc(N3CCOCC3)nc12 (single isomer, unassigned) [Compound 347a] | 2690 nM | > 30200 nM | > 30200 nM | > 30200 nM | > 30200 nM | > 513 nM | > 513 nM | 125 °C |  | 
COC(=O)c1cc(C2CCCN2c2cc(F)cc(F)c2)c2nc(N3CCOCC3)cnc2c1 (single isomer, unassigned) [Compound 249] | 4 nM | 955 nM | 794 nM | > 30200 nM | 2400 nM |  |  | 211 °C | 71 nM | 52 nM
Cc1cccc(NC(C)c2cc(C(=O)N3CCOCC3)cc3ncc(N4CCOCC4)nc23)c1 (stereo not shown) [Compound 120] | 14 nM | 2190 nM | 6760 nM | > 30200 nM | > 30200 nM | 479 nM | 269 nM | 80 °C |  | 
CC(Nc1cc(F)cc(F)c1)c1cc(C(=O)NCCO)cc2ncc(N3CCOCC3)nc12 (single isomer, unassigned) [Compound 188] | 1 nM | 182 nM | 851 nM | 16200 nM | 2290 nM |  |  | 80 °C | 22 nM | 15 nM
CN(C)C(=O)c1cc(N2CCCC2c2cc(F)cc(F)c2)c2nc(N3CCOCC3)cnc2c1 (single isomer, unassigned) [Compound 395a] | 33 nM | 1260 nM | 3470 nM | > 30200 nM | 17800 nM | > 513 nM | > 513 nM | 90 °C |  | 
CN(C)C(=O)c1cc(C2CCCN2c2cc(F)cc(C=O)c2)c2nc(N3CCOCC3)cnc2c1 (stereo not shown) [Compound 44] | 1 nM | 174 nM | 234 nM | 23400 nM | 631 nM | 74 nM | 66 nM | 80 °C |  | 
CC(Nc1cccc(F)c1)c1cc(C(=O)N2CC[C@@H](O)C2)cc2ncc(N3CCOCC3)nc12 (single isomer, unassigned) [Compound 321a] | 1 nM | 174 nM | 832 nM | > 30200 nM | 4680 nM | 18 nM | 8 nM | 118 °C |  | 
CC(Nc1ccc(F)c(F)c1)c1cc(C(=O)NC[C@@H](C)O)cc2ncc(N3CCOCC3)nc12 (single isomer, unassigned) [Compound 346a] | 3 nM | 955 nM | 2510 nM | 30900 nM | 9550 nM |  |  | 107 °C | 178 nM | 68 nM
